Changes are numbered by the printed parent chain.
Experiments:
Assay in all cases: intrinsic protein fluorescence titration
Type in all cases: binding
[1] = target: T1, QueD (Ni-QueD; Streptomyces quercetinase) (Streptomyces sp. FLA, UniProt A2VA43)
T1 construct: C-terminal StrepII tag kept (pET23a-queD-Strep), E. coli BL21(DE3) pLysS grown with Ni2+; monocupin, native enzyme a dimer
T1 sequence (A2VA43 1-186): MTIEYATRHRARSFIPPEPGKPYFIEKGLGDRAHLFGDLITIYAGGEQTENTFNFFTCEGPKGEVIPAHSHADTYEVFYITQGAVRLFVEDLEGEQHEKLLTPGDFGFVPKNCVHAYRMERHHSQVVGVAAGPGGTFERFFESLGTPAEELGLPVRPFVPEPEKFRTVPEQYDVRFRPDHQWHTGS
Source text: intrinsic protein fluorescence titration on QueD (Ni-QueD; Streptomyces quercetinase) | The K D value of the complex of Ni-QueD with quercetin

[2] = target: T2, QueD (Ni-QueD; Streptomyces quercetinase) (Streptomyces sp. FLA, UniProt A2VA43, H69A)
T2 construct: C-terminal StrepII tag kept (pET23a-queD-Strep), E. coli BL21(DE3) pLysS grown with Ni2+; monocupin, native enzyme a dimer
T2 sequence (A2VA43 1-186 H69A): T1 sequence (A2VA43 1-186) with H69A
Source text: (§1) intrinsic protein fluorescence titration on QueD (Ni-QueD; Streptomyces quercetinase)

[3] = target: T3, QueD (Ni-QueD; Streptomyces quercetinase) (Streptomyces sp. FLA, UniProt A2VA43, H71A)
T3 construct: C-terminal StrepII tag kept (pET23a-queD-Strep), E. coli BL21(DE3) pLysS grown with Ni2+; monocupin, native enzyme a dimer
T3 sequence (A2VA43 1-186 H71A): T1 sequence (A2VA43 1-186) with H71A
Source text: as §1

[4] = target: T4, QueD (Ni-QueD; Streptomyces quercetinase) (Streptomyces sp. FLA, UniProt A2VA43, E76H)
T4 construct: C-terminal StrepII tag kept (pET23a-queD-Strep), E. coli BL21(DE3) pLysS grown with Ni2+; monocupin, native enzyme a dimer
T4 sequence (A2VA43 1-186 E76H): T1 sequence (A2VA43 1-186) with E76H
Source text: as §1

[5] = target: T5, QueD (Ni-QueD; Streptomyces quercetinase) (Streptomyces sp. FLA, UniProt A2VA43, H115A)
T5 construct: C-terminal StrepII tag kept (pET23a-queD-Strep), E. coli BL21(DE3) pLysS grown with Ni2+; monocupin, native enzyme a dimer
T5 sequence (A2VA43 1-186 H115A): T1 sequence (A2VA43 1-186) with H115A
Source text: as §1

[6] = target: T6, QueD (Ni-QueD; Streptomyces quercetinase) (Streptomyces sp. FLA, UniProt A2VA43, E76D)
T6 construct: C-terminal StrepII tag kept (pET23a-queD-Strep), E. coli BL21(DE3) pLysS grown with Ni2+; monocupin, native enzyme a dimer
T6 sequence (A2VA43 1-186 E76D): T1 sequence (A2VA43 1-186) with E76D
Source text: as §1

Compound `O=c1c(O)c(-c2ccc(O)c(O)c2)oc2cc(O)cc(O)c12` [quercetin] has a Kd [1] of 10.1 ± 2.9 µM, a Kd [2] of 3.1 µM and a Kd [3] of 10.4 µM. It also gave a Kd [4] of 1.3 µM, a Kd [5] of 2.6 µM and a Kd [6] of 4 µM.
